Results taken from patent US20240051946A1, “TARGETED PROTEIN DEGRADATION OF PARP14 FOR USE IN THERAPY” (Ribon Therapeutics, Inc., priority 2022, published 2024).
Where a name gives a salt, the structure may show the parent alone.

Legend:
PARP14 = biological target: T1, PARP14 (Homo sapiens, UniProt Q460N5); assay: HiBiT assay for the degradation of PARP14 (HiBiT tagged PARP14 in LgBiT expressing Jurkat cells); type: cell-based; conditions: Assay B, 37° C. for 2 or 24 hours, luminescence, read-out: DC50
T1 construct: engineered to contain a HiBiT tag on both alleles of the PARP14 gene; endogenous in cells; host or cells: Jurkat cells stably expressing LgBiT (Promega), with CRISPR/Cas9 knock-in of HiBiT at the PARP14 locus
T1 sequence (Q460N5 whole entry): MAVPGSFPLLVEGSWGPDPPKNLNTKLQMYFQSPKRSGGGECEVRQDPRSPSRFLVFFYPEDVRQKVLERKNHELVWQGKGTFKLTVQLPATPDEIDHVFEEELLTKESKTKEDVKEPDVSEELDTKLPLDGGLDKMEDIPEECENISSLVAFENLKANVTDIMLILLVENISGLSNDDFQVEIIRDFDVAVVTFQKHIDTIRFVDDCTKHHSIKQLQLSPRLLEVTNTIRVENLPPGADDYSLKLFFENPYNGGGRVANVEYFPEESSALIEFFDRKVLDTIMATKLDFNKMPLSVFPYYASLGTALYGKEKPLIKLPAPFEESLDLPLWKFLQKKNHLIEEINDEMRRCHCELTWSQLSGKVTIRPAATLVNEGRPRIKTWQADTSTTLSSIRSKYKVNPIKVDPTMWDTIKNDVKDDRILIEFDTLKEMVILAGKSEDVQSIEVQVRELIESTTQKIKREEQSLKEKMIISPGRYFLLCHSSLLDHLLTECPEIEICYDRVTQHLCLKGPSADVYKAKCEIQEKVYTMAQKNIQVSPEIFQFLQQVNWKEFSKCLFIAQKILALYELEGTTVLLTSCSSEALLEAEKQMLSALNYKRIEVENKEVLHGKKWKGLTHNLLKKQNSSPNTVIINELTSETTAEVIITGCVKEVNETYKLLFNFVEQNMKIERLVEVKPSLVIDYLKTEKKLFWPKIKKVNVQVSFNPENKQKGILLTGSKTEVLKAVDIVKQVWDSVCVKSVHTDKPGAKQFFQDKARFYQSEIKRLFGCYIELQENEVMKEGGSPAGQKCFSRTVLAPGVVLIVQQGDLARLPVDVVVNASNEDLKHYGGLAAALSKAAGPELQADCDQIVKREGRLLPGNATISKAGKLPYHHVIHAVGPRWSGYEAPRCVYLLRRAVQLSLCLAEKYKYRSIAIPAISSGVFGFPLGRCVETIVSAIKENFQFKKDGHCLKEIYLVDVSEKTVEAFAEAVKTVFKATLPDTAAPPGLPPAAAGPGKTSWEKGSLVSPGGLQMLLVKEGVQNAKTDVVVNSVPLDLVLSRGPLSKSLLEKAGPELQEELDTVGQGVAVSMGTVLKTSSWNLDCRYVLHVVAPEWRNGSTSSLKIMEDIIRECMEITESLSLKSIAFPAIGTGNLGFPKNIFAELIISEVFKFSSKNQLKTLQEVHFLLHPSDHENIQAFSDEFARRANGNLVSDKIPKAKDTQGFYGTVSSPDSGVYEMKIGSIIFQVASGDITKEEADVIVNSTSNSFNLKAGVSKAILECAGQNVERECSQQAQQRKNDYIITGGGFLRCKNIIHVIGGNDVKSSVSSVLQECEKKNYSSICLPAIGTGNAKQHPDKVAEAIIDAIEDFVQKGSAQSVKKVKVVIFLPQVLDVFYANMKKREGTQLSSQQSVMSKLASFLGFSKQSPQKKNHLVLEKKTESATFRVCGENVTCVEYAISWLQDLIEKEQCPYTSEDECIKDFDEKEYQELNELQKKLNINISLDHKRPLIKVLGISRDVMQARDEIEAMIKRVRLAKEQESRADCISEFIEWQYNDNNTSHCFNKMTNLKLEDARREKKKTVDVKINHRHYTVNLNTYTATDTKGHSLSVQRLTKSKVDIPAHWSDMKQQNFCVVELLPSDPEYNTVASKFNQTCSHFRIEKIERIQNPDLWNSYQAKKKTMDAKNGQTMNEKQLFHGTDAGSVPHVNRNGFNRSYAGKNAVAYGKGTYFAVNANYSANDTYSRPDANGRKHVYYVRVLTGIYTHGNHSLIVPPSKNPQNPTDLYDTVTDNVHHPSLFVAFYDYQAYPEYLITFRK
Procedure: Jurkat cells stably transfected with LgBiT (Promega) were engineered to contain a HiBiT tag on both alleles of the PARP14 gene (Genbank Accession Number: NM_017554) via CRISPR/Cas9 editing. The HiBiT tag is an 11 amino acid tag created by Promega that associates with LgBiT protein to form the NanoLuc® tag on the C-terminus of PARP14. Clones were isolated and confirmed for the HiBiT tag via Sanger sequencing.
Degradation of PARP14 protein was assessed by measuring the luminescence of the HiBiT tag associating with the LgBiT protein as a proxy for the PARP14 protein. Jurkat cells were diluted to 250,000 cells per mL and then added to assay plate (Corning 3574) using a Multidrop (Thermo Fisher) to add 20 μL per well of the 384 well plate, resulting in 5,000 cells per well. 20 nL of a dose response curve diluted in DMSO of each test compound was added to the cell plate using a Mosquito (TTP Labtech) and the plate was incubated at 37° C. for 2 or 24 hours. Assay plate was brought to room temperature then 5 μL per well of Live Cell Substrate (Promega) was added to the plate. Luminescence was measured on an Envision (Perkin Elmer).
The average DMSO was calculated from 32 wells containing 0.1% DMSO only in columns 12 and 24 of the assay plate. The % of DMSO values were calculated as described below: […]
The % of DMSO values were plotted as a function of compound concentration and the following 4-parameter fit was applied to derive the DC50 values:
where top, bottom, and Hill Coefficient are allowed to float. Y is the % of DMSO and X is the compound concentration.
DC50 data for the Example compounds is provided below in Table 2 (“+” is <0.03 μM; “++” is ≥0.03 μM).

[1] = biological target: T2, catalytic domain of human PARP14 (residues 1611 to 1801) with NanoLuc tag (Homo sapiens, UniProt Q460N5); assay: NanoLuc assay for the degradation of PARP14; type: cell-based; conditions: Assay A; NanoLuc-PARP14 overexpressed in HEK-293T cells; 2 hours at 37 degrees; luminescence
T2 construct: expressed in transfected cells; host or cells: HEK-293T cells (ATCC), plasmid pRTX240 in pcDNA3.1(-)
T2 sequence (Q460N5 1611-1801): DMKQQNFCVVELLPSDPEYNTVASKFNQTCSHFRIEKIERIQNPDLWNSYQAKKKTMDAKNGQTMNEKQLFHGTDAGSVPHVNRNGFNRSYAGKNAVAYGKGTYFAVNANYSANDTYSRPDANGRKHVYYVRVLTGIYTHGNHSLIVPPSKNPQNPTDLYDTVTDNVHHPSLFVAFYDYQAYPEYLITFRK
Summary of the method: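 HEK-293T cells transiently transfected 24 hrs with N-terminal NanoLuc-tagged human PARP14 catalytic domain (residues 1611-1801), then exposed to compound dose response for 2 hours at 37 degrees. NanoGlo luminescence expressed as % of 0.1% DMSO wells; DC50 from floating 4-parameter fit, reported as banded ranges.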

[2] = system: Alternaria asthma mouse model; assay: Alternaria asthma mouse model: cell counts and cytokines in BALF; type: in vivo; conditions: for total cell counts in BALF: 30 and 100 mg/kg once daily for 7 days subcutaneous, vs vehicle P<0.05
Procedure: The effect of Compound 17 was studied in an Alternaria asthma mouse model. On days 1-5, male Balb/c mice under isoflurane anesthesia were challenged by instilling solution of 5 μg (protein weight) Alternaria in 40 μL of PBS into each nostril. Compound 17 was administered two days prior to Alternaria challenge (defined day as day −1) and animals were treated with vehicle (10% DMSO/45% PEG-400/45% ‘20% HP-3-CD’ in water) or Compound 17 (30 and 100 mg/kg) once daily for 7 days (defined as day −1 to day 5) by subcutaneous injection. Total and differential cell counts of the BALF fluid samples were measured using a XT-2000iV analyzer (Sysmex). Cytokine concentrations of BALF supernatant were measured in samples from all groups using ELISA kit (Biotechne, UK). Statistical significance is calculated using one-way ANOVA followed by Dunnett's post-tests in which the treatment groups were compared to vehicle control (P<0.05).

[3] = male Balb/c mice, Alternaria challenge, 30 and 100 mg/kg once daily 7 days s.c., dose-dependent starting from 30 mg/kg

O=C1CCC(Nc2ccc(N3CCC(N4CCC(SCc5nc6cc(OCC7CCOCC7)cc(F)c6c(=O)[nH]5)CC4)CC3)c(F)c2)C(=O)N1 (centres unmarked) [Example 52, 3-((3-fluoro-4-(4-(((5-fluoro-4-oxo-7-((tetrahydro-2H-pyran-4-yl)methoxy)-3,4-dihydroquinazolin-2-yl)methyl)thio)-[1,4′-bipiperidin]-1′-yl)phenyl)amino)piperidine-2,6-dione]
DC50 (PARP14): < 30 nM

O=C1CCC(Nc2ccc(C3CCN(CC4CCN(C(=O)CN5CCC(SCc6nc7cc(OCC8CCOCC8)cc(F)c7c(=O)[nH]6)CC5)CC4)CC3)cc2)C(=O)N1 (centres unmarked) [Example 17, 3-((4-(1-((1-(2-(4-(((5-fluoro-4-oxo-7-((tetrahydro-2H-pyran-4-yl)methoxy)-3,4-dihydroquinazolin-2-yl)methyl)thio)piperidin-1-yl)acetyl)piperidin-4-yl)methyl)piperidin-4-yl)phenyl)amino)piperidine-2,6-dione]
DC50 [1]: < 100 nM | eosinophil in BALF ([2]; FIG. 2A legend, dose-dependent starting from 100 mg/kg): significantly reduces | cytokine IL-33 in BALF ([2]; FIG. 2B legend, dose-dependent starting from 100 mg/kg): significantly reduces | cytokine IL-4 in BALF ([2]; FIG. 2C legend, dose-dependent starting from 100 mg/kg): significantly reduces | cytokine IL-5 in BALF ([2]; FIG. 2D legend, dose-dependent starting from 100 mg/kg): significantly reduces | cytokine IL-4 in BALF [2, 3]: significantly reduces | cytokine IL-5 in BALF [2, 3]: significantly reduces | cytokine IL-33 in BALF [2, 3]: significantly reduces | eosinophils in BALF [2, 3]: significantly reduces | total cell counts in BALF ([2]; male Balb/c mice, Alternaria challenge, dose-dependent starting from 30 mg/kg): dose-dependent reduction | total cell counts in BALF ([2]; male Balb/c mice, Alternaria challenge, dose-dependent starting from 30 mg/kg, listed as Compound 17): significantly reduces

O=C1CCC(N2C(=O)c3cccc4c(N5CCN(CCN6CCC(SCc7nc8cc(OCC9CC9)cc(F)c8c(=O)[nH]7)CC6)CC5)ccc2c34)C(=O)N1 (centres unmarked) [Example 49, 3-(6-(4-(2-(4-(((7-(cyclopropylmethoxy)-5-fluoro-4-oxo-3,4-dihydroquinazolin-2-yl)methyl)thio)piperidin-1-yl)ethyl)piperazin-1-yl)-2-oxobenzo[cd]indol-1(2H)-yl)piperidine-2,6-dione]
DC50 (PARP14): < 30 nM

O=C1CCC(Nc2ccc(N3CCC(N4CCC(OCc5nc6cc(OCC7CC7)cc(F)c6c(=O)[nH]5)CC4)CC3)c(F)c2)C(=O)N1 (centres unmarked) [Example 53, 3-((4-(4-((7-(cyclopropylmethoxy)-5-fluoro-4-oxo-3,4-dihydroquinazolin-2-yl)methoxy)-[1,4′-bipiperidin]-1′-yl)-3-fluorophenyl)amino)piperidine-2,6-dione]
DC50 (PARP14): < 30 nM

O=C1CCC(Nc2ccc(N3CCC(N4CCC(SCc5nc6cc(OCC7CC7)cc(F)c6c(=O)[nH]5)CC4)CC3)c(C(F)(F)F)c2)C(=O)N1 (centres unmarked) [Example 57, 3-((4-(4-(((7-(cyclopropylmethoxy)-5-fluoro-4-oxo-3,4-dihydroquinazolin-2-yl)methyl)thio)-[1,4′-bipiperidin]-1′-yl)-3-(trifluoromethyl)phenyl)amino)piperidine-2,6-dione]
DC50 (PARP14): < 30 nM

O=C1CCC(Nc2ccc(N3CCC(N4CCC(SCc5nc6cc(C#CC7CC7)cc(F)c6c(=O)[nH]5)CC4)CC3)c(F)c2)C(=O)N1 (centres unmarked) [Example 67, 3-((4-(4-(((7-(cyclopropylethynyl)-5-fluoro-4-oxo-3,4-dihydroquinazolin-2-yl)methyl)thio)-[1,4′-bipiperidin]-1′-yl)-3-fluorophenyl)amino)piperidine-2,6-dione formate]
DC50 (PARP14): < 30 nM

O=C1CCC(Nc2ccc(N3CCC(N4CCC(SCc5nc6cc(OCC7CC7)cc(F)c6c(=O)[nH]5)CC4)C3)c(F)c2)C(=O)N1 (centres unmarked) [Example 59, 3-((4-(3-(4-(((7-(cyclopropylmethoxy)-5-fluoro-4-oxo-3,4-dihydroquinazolin-2-yl)methyl)thio)piperidin-1-yl)pyrrolidin-1-yl)-3-fluorophenyl)amino)piperidine-2,6-dione]
DC50 (PARP14): < 30 nM

O=C1CCC(Nc2ccc(N3CCN(CCN4CCC(SCc5nc6cc(OCC7CCOCC7)cc(F)c6c(=O)[nH]5)CC4)CC3)c(F)c2)C(=O)N1 (centres unmarked) [Example 46, 3-((3-fluoro-4-(4-(2-(4-(((5-fluoro-4-oxo-7-((tetrahydro-2H-pyran-4-yl)methoxy)-3,4-dihydroquinazolin-2-yl)methyl)thio)piperidin-1-yl)ethyl)piperazin-1-yl)phenyl)amino)piperidine-2,6-dione]
DC50 (PARP14): < 30 nM

O=C1CCC(Nc2ccc(N3CCN(CCN4CCC(SCc5nc6cc(OCC7CCOCC7)cc(F)c6c(=O)[nH]5)CC4)CC3)cc2)C(=O)N1 (centres unmarked) [Example 43, 3-((4-(4-(2-(4-(((5-fluoro-4-oxo-7-((tetrahydro-2H-pyran-4-yl)methoxy)-3,4-dihydroquinazolin-2-yl)methyl)thio)piperidin-1-yl)ethyl)piperazin-1-yl)phenyl)amino)piperidine-2,6-dione]
DC50 (PARP14): < 30 nM

O=C1CCC(Nc2ccc(N3CCN(CCN4CCC(OCc5nc6cc(OCC7CCOCC7)cc(F)c6c(=O)[nH]5)CC4)CC3)c(F)c2)C(=O)N1 (centres unmarked) [Example 44, 3-((3-fluoro-4-(4-(2-(4-((5-fluoro-4-oxo-7-((tetrahydro-2H-pyran-4-yl)methoxy)-3,4-dihydroquinazolin-2-yl)methoxy)piperidin-1-yl)ethyl)piperazin-1-yl)phenyl)amino)piperidine-2,6-dione]
DC50 (PARP14): < 30 nM
